As a reminder, the Ki is a measure of affinity in units of concentration, obtained from inhibition or displacement. The term IC50 denotes the concentration needed to halve the response being measured.

Assay [1] deals with isolated recombinant JAK2 kinase domain (Homo sapiens (Human), UniProt O60674). The assay can be described thus: JAK2 enzyme assay (Caliper LabChip, Ki). The note with it: read-out: JAK2 Ki.
Protocol: JAK Enzyme Assays were Carried Out as Follows:
The activity of the isolated recombinant JAK1 and JAK2 kinase domain was measured by monitoring phosphorylation of a peptide derived from JAK3 ([sequence] fluorescently labeled on the N-terminus with 5-carboxyfluorescein) using the Caliper LabChip R technology (Caliper Life Sciences, Hopkinton, Mass.). […] After termination of the kinase reaction, the proportion of phosphorylated product was determined as a fraction of total peptide substrate using the Caliper LabChip R 3000 according to the manufacturer's specifications.
For assay [2], the target named is isolated recombinant JAK1 kinase domain (Homo sapiens (Human), UniProt P23458). In words: JAK1 enzyme assay (Caliper LabChip, Ki). In kind it is biochemical. As for the experimental part: The activity of the isolated recombinant JAK1 and JAK2 kinase domain was measured by monitoring phosphorylation of a peptide derived from JAK3 ([…] fluorescently labeled on the N-terminus with 5-carboxyfluorescein) using the Caliper LabChip R technology (Caliper Life Sciences, Hopkinton, Mass.).
Chain of isolated recombinant JAK1 kinase domain (P23458 875-1153): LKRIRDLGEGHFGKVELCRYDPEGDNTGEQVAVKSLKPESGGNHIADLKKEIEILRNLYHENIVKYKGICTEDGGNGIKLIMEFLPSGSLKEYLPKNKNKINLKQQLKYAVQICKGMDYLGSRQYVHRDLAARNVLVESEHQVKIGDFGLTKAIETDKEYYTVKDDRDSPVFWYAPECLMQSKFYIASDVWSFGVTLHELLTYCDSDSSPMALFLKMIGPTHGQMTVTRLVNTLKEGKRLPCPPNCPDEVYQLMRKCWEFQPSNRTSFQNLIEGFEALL

Assay [3] relates to JAK1-dependent STAT6 phosphorylation in BEAS-2B human bronchial epithelial cells. The assay can be described thus: JAK1 pathway assay: IL-13 stimulated STAT6 phosphorylation in BEAS-2B cells. In kind it is cell-based. The note with it: Homo sapiens, BEAS-2B, BEAS-2B cells, IL-13 stimulation; read-out: IL-13 p-STAT6 BEAS-2B IC50. The method in brief: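 BEAS-2B bronchial epithelial cells plated one day before, run in complete growth medium. Phospho-STAT6 in lysates measured by MesoScale Discovery; EC50 reported.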

Chain of isolated recombinant JAK2 kinase domain (O60674 849-1124): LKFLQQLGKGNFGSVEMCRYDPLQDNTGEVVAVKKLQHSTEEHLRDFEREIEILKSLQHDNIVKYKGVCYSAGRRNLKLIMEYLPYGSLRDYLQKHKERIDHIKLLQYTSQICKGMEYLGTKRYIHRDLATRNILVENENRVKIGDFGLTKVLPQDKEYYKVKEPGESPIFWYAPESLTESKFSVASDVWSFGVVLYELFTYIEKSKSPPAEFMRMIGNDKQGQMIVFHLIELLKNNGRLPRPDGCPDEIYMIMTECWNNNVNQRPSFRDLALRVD

Turning to `O=C(Nc1cn(Cc2ncco2)nc1-c1cc2c(cc1OC(F)F)NCCS2)c1cnn2cccnc12` [Example 124, N-[3-[6-(difluoromethoxy)-3,4-dihydro-2H-1,4-benzothiazin-7-yl]-1-(oxazol-2-ylmethyl)pyrazol-4-yl]pyrazolo[1,5-a]pyrimidine-3-carboxamide], the values for the Ki in assay [1] and in assay [2] were 0.15 nM and 0.25 nM, respectively. For the same compound, the IC50 in assay [3] was determined as 20 nM.
The like results for `Cn1nnnc1Cn1cc(NC(=O)c2cnn3cccnc23)c(-c2cc3c(cc2OC(F)F)NCCS3)n1` [Example 127, N-[3-[6-(difluoromethoxy)-3,4-dihydro-2H-1,4-benzothiazin-7-yl]-1-[(1-methyltetrazol-5-yl)methyl]pyrazol-4-yl]pyrazolo[1,5-a]pyrimidine-3-carboxamide] were, in that order, 0.06 nM, 0.12 nM and 14 nM.
Take `Cn1nnc(Cn2cc(NC(=O)c3cnn4cccnc34)c(-c3cc4c(cc3OC(F)F)NCCS4)n2)n1` [Example 128, N-[3-[6-(difluoromethoxy)-3,4-dihydro-2H-1,4-benzothiazin-7-yl]-1-[(2-methyltetrazol-5-yl)methyl]pyrazol-4-yl]pyrazolo[1,5-a]pyrimidine-3-carboxamide]: the inhibition constant (Ki) in assay [1] amounted to 0.09 nM; in assay [2], 0.14 nM. In addition, the IC50 in assay [3] came out at 7 nM.
As to `CN(C)C(=O)Cn1cc(NC(=O)c2cnn3cccnc23)c(-c2cc3sncc3cc2OC(F)F)n1` [Example 129, N-[3-[5-(difluoromethoxy)-1,2-benzothiazol-6-yl]-1-[2-(dimethylamino)-2-oxo-ethyl]pyrazol-4-yl]pyrazolo[1,5-a]pyrimidine-3-carboxamide], the Ki in assay [1] came out at 0.47 nM; in assay [2], 0.2 nM. In addition, in assay [3], the IC50 was 11 nM.
As to `CCN(C)C(=O)Cn1cc(NC(=O)c2cnn3cccnc23)c(-c2cc3c(cc2OC(F)F)NCCO3)n1` [Example 130, N-[3-[6-(difluoromethoxy)-3,4-dihydro-2H-1,4-benzoxazin-7-yl]-1-[2-[ethyl(methyl)amino]-2-oxo-ethyl]pyrazol-4-yl]pyrazolo[1,5-a]pyrimidine-3-carboxamide], the Ki is 0.47 nM in assay [1] and 0.31 nM in assay [2]. Further, in assay [3], the half-maximal inhibitory concentration (IC50) came out at 59 nM.
As for `Cn1cc(Cn2cc(NC(=O)c3cnn4cccnc34)c(-c3cc4c(cc3OC(F)F)NCCS4)n2)nn1` [Example 131, N-[3-[6-(difluoromethoxy)-3,4-dihydro-2H-1,4-benzothiazin-7-yl]-1-[(1-methyltriazol-4-yl)methyl]pyrazol-4-yl]pyrazolo[1,5-a]pyrimidine-3-carboxamide], the inhibition constant (Ki) in assay [1] was determined as 0.08 nM; in assay [2] it was 0.12 nM. In assay [3], the IC50 was 30 nM.
For the compound `O=C(Nc1cn(CC(=O)N2CCC(F)(F)C2)nc1-c1cc2c(cc1OC(F)F)NCCO2)c1cnn2cccnc12` [Example 132, N-[3-[6-(difluoromethoxy)-3,4-dihydro-2H-1,4-benzoxazin-7-yl]-1-[2-(3,3-difluoropyrrolidin-1-yl)-2-oxo-ethyl]pyrazol-4-yl]pyrazolo[1,5-a]pyrimidine-3-carboxamide], the Ki in assay [1] worked out at 0.4 nM; in assay [2], 0.36 nM. In assay [3], the half-inhibitory concentration (IC50) came out at 31 nM.
Consider `Cn1nncc1Cn1cc(NC(=O)c2cnn3cccnc23)c(-c2cc3c(cc2OC(F)F)NCCO3)n1` [Example 133, N-[3-[6-(difluoromethoxy)-3,4-dihydro-2H-1,4-benzoxazin-7-yl]-1-[(3-methyltriazol-4-yl)methyl]pyrazol-4-yl]pyrazolo[1,5-a]pyrimidine-3-carboxamide], for which the inhibition constant (Ki) turned out to be 0.21 nM in assay [1] and 0.26 nM in assay [2]. Further, the IC50 in assay [3] turned out to be 17 nM.
On to `O=C(Nc1cn(CC2(O)CCOCC2)nc1-c1cc2c(cc1OC(F)F)NCCO2)c1cnn2cccnc12` [Example 134, N-[3-[6-(difluoromethoxy)-3,4-dihydro-2H-1,4-benzoxazin-7-yl]-1-[(4-hydroxytetrahydropyran-4-yl)methyl]pyrazol-4-yl]pyrazolo[1,5-a]pyrimidine-3-carboxamide], for which the Ki in assay [1] was 0.47 nM; in assay [2], 0.4 nM. Moreover, the 50% inhibitory concentration (IC50) in assay [3] was found to be 23 nM.
For the compound `Cn1nnnc1Cn1cc(NC(=O)c2cnn3cccnc23)c(-c2cc3c(cc2OC(F)F)NCCO3)n1` [Example 135, N-[3-[6-(difluoromethoxy)-3,4-dihydro-2H-1,4-benzoxazin-7-yl]-1-[(1-methyltetrazol-5-yl)methyl]pyrazol-4-yl]pyrazolo[1,5-a]pyrimidine-3-carboxamide], the Ki in assay [1] turned out to be 0.14 nM; in assay [2], 0.19 nM. Moreover, in assay [3], the half-inhibitory concentration (IC50) stood at 26 nM.
As to `Cn1nnc(Cn2cc(NC(=O)c3cnn4cccnc34)c(-c3cc4c(cc3OC(F)F)NCCO4)n2)n1` [Example 136, N-[3-[6-(difluoromethoxy)-3,4-dihydro-2H-1,4-benzoxazin-7-yl]-1-[(2-methyltetrazol-5-yl)methyl]pyrazol-4-yl]pyrazolo[1,5-a]pyrimidine-3-carboxamide], the inhibition constant Ki worked out at 0.17 nM in assay [1] and 0.23 nM in assay [2]. Further, the IC50 in assay [3] stood at 21 nM.
`Cn1cc(NC(=O)c2cnn3cccnc23)c(-c2cc3c(cc2OC(F)F)NC(=O)CO3)n1` [Example 137, N-[3-[6-(difluoromethoxy)-3-oxo-4H-1,4-benzoxazin-7-yl]-1-methyl-pyrazol-4-yl]pyrazolo[1,5-a]pyrimidine-3-carboxamide]: the Ki in assay [1] stood at 0.08 nM; in assay [2] it was 0.09 nM. The IC50 in assay [3] amounted to 8 nM.
The corresponding values for `O=C(Nc1cn(CC(=O)N2CC(F)(F)C2)nc1-c1cc2c(cc1OC(F)F)NCCO2)c1cnn2cccnc12` [Example 138, N-[1-[2-(3,3-difluoroazetidin-1-yl)-2-oxo-ethyl]-3-[6-(difluoromethoxy)-3,4-dihydro-2H-1,4-benzoxazin-7-yl]pyrazol-4-yl]pyrazolo[1,5-a]pyrimidine-3-carboxamide] are 0.32 nM, 0.26 nM and 36 nM.
Turning to `O=C(Nc1cn(C2COC2)nc1-c1cc2sncc2cc1OC(F)F)c1cnn2cccnc12` [Example 139, N-[3-[5-(difluoromethoxy)-1,2-benzothiazol-6-yl]-1-(oxetan-3-yl)pyrazol-4-yl]pyrazolo[1,5-a]pyrimidine-3-carboxamide], the inhibitory constant (Ki) is 0.21 nM in assay [1] and 0.33 nM in assay [2]. Also, in assay [3], the half-inhibitory concentration (IC50) came to 10 nM.
As to `N#CCn1cc(NC(=O)c2cnn3cccnc23)c(-c2cc3c(cc2OC(F)F)NCCS3)n1` [Example 140, N-[1-(cyanomethyl)-3-[6-(difluoromethoxy)-3,4-dihydro-2H-1,4-benzothiazin-7-yl]pyrazol-4-yl]pyrazolo[1,5-a]pyrimidine-3-carboxamide], the Ki in assay [1] was determined as 0.06 nM; in assay [2], 0.09 nM. The IC50 in assay [3] was 4 nM.
On to `CN(C)C(=O)Cn1cc(NC(=O)c2cnn3cccnc23)c(-c2cc3cnsc3cc2OC(F)F)n1` [Example 143, N-[3-[6-(difluoromethoxy)-1,2-benzothiazol-5-yl]-1-[2-(dimethylamino)-2-oxo-ethyl]pyrazol-4-yl]pyrazolo[1,5-a]pyrimidine-3-carboxamide], for which the Ki in assay [1] is 0.97 nM; in assay [2], 0.22 nM. Besides, the IC50 in assay [3] came to 13 nM.

Source of the values: patent US11155557B2, “Pyrazolopyrimidine compounds and methods of use thereof” (Genentech, Inc., priority 2016, dated 2021).
